Results taken from paper doi:10.1101/2025.08.13.670122v1 (bioRxiv, 2025).
Where two headings read alike, the source gives them in different places.

Target: T1, endogenous AT1R (Rattus norvegicus, UniProt P25095)
T1 construct: expressing low levels of endogenous AT1R; endogenous in cells; host or cells: rat primary VSMC, passages 13-15
T1 sequence (P25095 1-359): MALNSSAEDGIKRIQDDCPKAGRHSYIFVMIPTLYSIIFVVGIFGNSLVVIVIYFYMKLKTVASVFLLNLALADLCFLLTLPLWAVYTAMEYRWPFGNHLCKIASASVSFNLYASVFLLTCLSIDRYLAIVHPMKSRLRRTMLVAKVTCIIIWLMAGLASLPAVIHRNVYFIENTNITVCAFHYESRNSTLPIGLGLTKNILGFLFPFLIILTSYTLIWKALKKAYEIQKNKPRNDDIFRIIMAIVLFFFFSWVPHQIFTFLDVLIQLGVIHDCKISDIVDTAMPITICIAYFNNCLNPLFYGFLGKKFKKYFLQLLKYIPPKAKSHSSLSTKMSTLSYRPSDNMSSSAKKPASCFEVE
Assay: PKC BRET sensor in rat primary VSMC with endogenous AT1R
Type: cell-based
Details: for Emax PKC in VSMCs (% AngII): PKC sensor, for 12 and TRV027 response at 10 μM; for EC50: adenoviral PKC BRET sensor, 1 min stimulation, mean ± SEM of at least three to five independent experiments, read-out: EC50 PKC in VSMCs
Text: We next assessed the analogs’ ability to engage Gαq by assessing either the PKC or Rho responses in rat primary vascular smooth muscle cell (VSMC) culture, expressing low levels of endogenous AT1R (between 25–50 fmol/mg) (Figure 4, Table 6).
The coding regions of the PKC-c1b sensor, PKN-RBD-RlucII, and rGFPcaax were PCR-amplified and subcloned into the KpnI/XhoI sites of the pENTR3C vector (Invitrogen), respectively. These were then transferred into the adenoviral expression vector pAd/CMV/V5-DEST (Invitrogen), via gateway cloning (pAD-CMV-PKC-c1b, pAD-CMV-PKN-RBD-RLucII, and pAD-CMV-rGFPcaax). Viruses containing the sensor codes were generated following a previously outlined process.[49] […] The following day, cells were transfected with 4 µg of PacI-digested pAd5-CMVsensors using Lipofectamine 2000 (Invitrogen). After 7–10 days post-transfection, mature virus particles were gleaned via the collection of cells and media, which then underwent multiple cycles of freezing and thawing, followed by centrifugation. The harvested virus was amplified by re-infection on 100-mm dishes of confluent HEK293A cells, and harvested 48-72 h later. Viral titers were determined by serial dilution of adenovirus stock and subsequent infection of HEK293A cells in 96-well plates. 36 h after infection, cells were stained using an anti-hexon antibody (ab8249; Abcam), and hexon-expressing cells were tallied via fluorescence microscopy. The virus was then stored at −80°C. After this, rat VSMCs (between the 13th to 15th passages) were seeded at a density of 20,000 cells in each well of white 96-well plates 24 h before transduction with the viral vector. The cells were then transduced with the PKC sensor-adenovirus (3 μL per well) or Rho sensor (1 μL each per well of PKN-RBD-RLucII-adnovirus and rGFP-caax adenovirus). After 24 h, the medium was replaced. 48 h post-viral transduction, the cells were thoroughly washed with Tyrode’s buffer. Finally, BRET assays were carried out as detailed below.
On the day of the experiment, each well was washed with 80 µL of Tyrode’s buffer (140 mM NaCl, 2.7 mM KCl, 1 mM CaCl2, 12 mM NaHCO3, 5.6 mM D-glucose, 0.5 mM MgCl2, 0.37 mM NaH2PO4, 25 mM Hepes (pH 7.4)). This was followed by incubation for 1 h in Tyrode’s buffer at room temperature. For the Gαq, β-arrestin-2, and PKC biosensors used in HEK293 cells, coelenterazine 400A (at a final concentration of 5 μM) was added 10 min before stimulation. Cells were then stimulated with increasing doses of the indicated ligand, and BRET signals were measured using a Tristar2 (Berthold) microplate reader 10 min later. For the PKC and Rho biosensors in VSMCs, and the Rho biosensor in ΔG12/13 cells, cells were similarly stimulated with ligands for 1 min, 1 min 30 s, and 3 min, respectively, before BRET measurement. […] BRET signals were then measured using a Synergy2 (BioTek) microplate reader. The applied filter set was 410/80 nm and 515/30 nm, designed to detect the light emissions of RlucII (Renilla luciferase) (donor) and rGFP (acceptor), respectively.

Row | Compound | Emax PKC in VSMCs (% AngII) | EC50 (SEM) [nM] | EC50 [nM]
1 | CC[C@H](C)[C@H](NC(=O)[C@H](Cc1ccc(O)cc1)NC(=O)[C@@H](NC(=O)[C@H](CCCNC(=N)N)NC(=O)[C@@H](N)CC(=O)O)C(C)C)C(=O)N[C@@H](Cc1c[nH]cn1)C(=O)N1CCC[C@H]1C(=O)N[C@@H](Cc1ccc(OC)cc1)C(=O)O [compound 11] | 104 | 79.8 ± 17.7 | 
2 | CC[C@H](C)[C@H](NC(=O)[C@H](Cc1ccc(O)cc1)NC(=O)[C@@H](NC(=O)[C@H](CCCNC(=N)N)NC(=O)[C@@H](N)CC(=O)O)C(C)C)C(=O)N[C@@H](Cc1c[nH]cn1)C(=O)N1CCC[C@H]1C(=O)N[C@@H](Cc1ccc(OCc2ccccc2)cc1)C(=O)O [compound 12] | 13 |  | > 10000
